The subject of test [1] is H929 multiple myeloma tumor line. The experiment in a line: In vitro cytotoxicity, MTT assay (Example B, Method A). It counts as cell-based. To be noted: H929 cells, 48 hours exposure, read-out: C50. The procedure: The cytotoxicity studies were carried out on the H929 multiple myeloma tumor line.
The cells are distributed onto microplates and exposed to the test compounds for 48 hours. The cell viability is then quantified by a colorimetric assay, the Microculture Tetrazolium Assay (Carmichael et al, Cancer Res. 1987, 47, 939-942).
The results are expressed in C50 which means concentration corresponding to […] of effect/inhibition.
(Tetrazolium dyes change colour on reduction, which living cells bring about.)

Test [2] concerns the target Cy5-labelled Mcl1 (amino acids 171-321) C286S protein (UniProtKB Q07820) (Homo sapiens (Human), UniProt Q07820, C286S). The experiment in a line: Inhibition of Mcl-1 by the fluorescence quenching assay (Example A, Method B). It counts as binding. The procedure, abridged: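 Eleven-point compound series incubated 2 h at room temperature with 1 nM Cy5-tagged protein and quencher-labelled PUMA peptide at 10, 20 or 400 nM in HEPES/NaCl/Tween 20, pH 7.4, 5% DMSO. IC50 for 50% fluorescence increase by 4-parameter fit, then Ki derived (complete cKi or estimated eKi).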

Each structure is given as a SMILES string. Where two headings read alike, the source gives them in different places.

Sequence of Cy5-labelled Mcl1 (amino acids 171-321) C286S protein (Q07820 171-321 C286S): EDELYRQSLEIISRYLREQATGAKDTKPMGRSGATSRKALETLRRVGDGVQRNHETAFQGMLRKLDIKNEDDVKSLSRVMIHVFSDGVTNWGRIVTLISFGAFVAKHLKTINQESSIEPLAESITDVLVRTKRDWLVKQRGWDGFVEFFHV

`CC1CCCc2nccc(NC[C@H](C)C[C@H]3Cc4ccccc4[C@]34CC[C@@](Nc3cccc(Cl)c3)(C(=O)O)CC4)c21` (stereo partly drawn) [Example 655, (1r,2′S,4S)-4-(3-chloroanilino)-2′-{(2R)-2-methyl-3-[(5-methyl-5,6,7,8-tetrahydroquinolin-4-yl)amino]propyl}-2′,3′-dihydrospiro[cyclohexane-1,1′-indene]-4-carboxylic acid]: in test [1] (Homo sapiens, NCI-H929, 48 h), the IC50 amounted to 8420 nM. For the same molecule, the Ki (usually a measure of affinity in units of concentration, obtained from inhibition or displacement) in test [2] amounted to 50.9 nM.

For the molecule `C[C@@H](COc1ccnc2c1[C@H](C)CC[C@H]2C)C[C@H]1Cc2cc(F)ccc2[C@]12CC[C@@](Nc1cccc(Cl)c1)(C(=O)O)CC2` [Example 773, (1r,2′S,4S)-4-(3-chloroanilino)-2′-[(2R)-3-{[(5R,8R)-5,8-dimethyl-5,6,7,8-tetrahydroquinolin-4-yl]oxy}-2-methylpropyl]-5′-fluoro-2′,3′-dihydrospiro[cyclohexane-1,1′-indene]-4-carboxylic acid], the IC50 in test [1] (Homo sapiens, NCI-H929, 48 h) was determined as 32.2 nM. Also, the Ki in test [2] amounted to 0.279 nM.

In the case of `C[C@@H](COc1ccnc2c1[C@@H](C)CC[C@H]2C)C[C@H]1Cc2ccccc2[C@]12CC[C@@](Nc1cccc(Cl)c1)(C(=O)O)CC2` (single isomer, unassigned) [Example 659, (1r,2′S,4S)-4-(3-chloroanilino)-2′-[(2R)-3-{[(5R*,8S*)-5,8-dimethyl-5,6,7,8-tetrahydroquinolin-4-yl]oxy}-2-methylpropyl]-2′,3′-dihydrospiro[cyclohexane-1,1′-indene]-4-carboxylic acid], in test [1], the IC50 worked out at 559 nM. Besides, the inhibitory constant (Ki) in test [2] was determined as 5.73 nM.

As for `O=C(O)[C@]1(Nc2cccc(Cl)c2)CC[C@]2(CC1)C(CC(F)COc1ccnc3c1CCCC3)=Cc1ccccc12` (single isomer, unassigned) [Example 505, (1r,4r)-4-(3-chloroanilino)-2′-{2-fluoro-3-[(5,6,7,8-tetrahydroquinolin-4-yl)oxy]propyl}spiro[cyclohexane-1,1′-indene]-4-carboxylic acid], the IC50 in test [1] (Homo sapiens, NCI-H929, 48 h) is 2380 nM. Further, the Ki in test [2] was found to be 23.4 nM.

Take `CCCC#C[C@@H](COc1ccnc2ccsc12)CC1=Cc2ccccc2[C@]12CC[C@@](Nc1cccc(Cl)c1)(C(=O)O)CC2` [Example 565, (1r,4S)-4-(3-chloroanilino)-2′-[(2S)-2-{[(thieno[3,2-b]pyridin-7-yl)oxy]methyl}hept-3-yn-1-yl]spiro[cyclohexane-1,1′-indene]-4-carboxylic acid]: the IC50 in test [1] (Homo sapiens, NCI-H929, 48 h) amounted to 2390 nM. In addition, the Ki in test [2] is 10.8 nM.

Take `C[C@@H](COc1ccnc2c1CCC/C2=C\F)C[C@H]1Cc2ccccc2[C@]12CC[C@@](Nc1cccc(Cl)c1)(C(=O)O)CC2` [Example 684, (1r,2′S,4S)-4-(3-chloroanilino)-2′-[(2R)-3-{[(8E)-8-(fluoromethylidene)-5,6,7,8-tetrahydroquinolin-4-yl]oxy}-2-methylpropyl]-2′,3′-dihydrospiro[cyclohexane-1,1′-indene]-4-carboxylic acid]: in test [1] (Homo sapiens, NCI-H929, 48 h), the IC50 is 5850 nM. In test [2], the Ki is 45.5 nM.

As to `O=C(O)[C@]1(Nc2cccc(Cl)c2)CC[C@@]2(CC1)c1ccccc1C[C@@H]2C[C@H](COc1ccncc1)c1ccccc1` [Example 555, (1r,2′S,4S)-4-(3-chloroanilino)-2′-{(2S)-2-phenyl-3-[(pyridin-4-yl)oxy]propyl}-2′,3′-dihydrospiro[cyclohexane-1,1′-indene]-4-carboxylic acid], in test [1] (Homo sapiens, NCI-H929, 48 h), the IC50 came out at 2860 nM. Besides, the Ki in test [2] stood at 14.6 nM.

On to `C[C@@H](COc1ccnc2c1[C@H](C)CCC2)CC1Cc2c(F)c(Cl)ccc2[C@]12CC[C@@](Nc1cccc(Cl)c1)(C(=O)O)CC2` (single isomer, unassigned) [Example 748], for which the IC50 in test [1] (Homo sapiens, NCI-H929, 48 h) turned out to be 138 nM. For the same molecule, the Ki in test [2] is 1.5 nM.

On to `C[C@@H]1CCCc2nccc(OCC(F)CC3Cc4ccccc4[C@]34CC[C@@](Nc3cccc(Cl)c3)(C(=O)O)CC4)c21` (single isomer, unassigned) [Example 507], for which the IC50 in test [1] came to 2240 nM. Further, the Ki in test [2] amounted to 8.76 nM.

Take `C[C@@H](COc1ccnc2c1[C@H](C)CC[C@H]2F)C[C@H]1Cc2ccccc2[C@]12CC[C@@](Nc1cccc(Cl)c1)(C(=O)O)CC2` [Example 689, (1r,2′S,4S)-4-(3-chloroanilino)-2′-[(2R)-3-{[(5R,8R)-8-fluoro-5-methyl-5,6,7,8-tetrahydroquinolin-4-yl]oxy}-2-methylpropyl]-2′,3′-dihydrospiro[cyclohexane-1,1′-indene]-4-carboxylic acid]: the IC50 in test [1] (Homo sapiens, NCI-H929, 48 h) came out at 117 nM. The inhibition constant Ki in test [2] amounted to 1.46 nM.

On to `O=C(O)[C@]1(Nc2cccc(Cl)c2)CC[C@]2(CC1)C(CC(COc1ccnc3ccsc13)Cc1ccccc1)=Cc1ccccc12` (single isomer, unassigned) [Example 559, (1r,4r)-2′-{2-benzyl-3-[(thieno[3,2-b]pyridin-7-yl)oxy]propyl}-4-(3-chloroanilino)spiro[cyclohexane-1,1′-indene]-4-carboxylic acid], for which, in test [1] (Homo sapiens, NCI-H929, 48 h), the IC50 turned out to be 30000 nM. The Ki in test [2] came out at 73 nM.

As for `CC1CC(O)c2nccc(OC[C@H](C)C[C@H]3Cc4ccccc4[C@]34CC[C@@](Nc3cccc(Cl)c3)(C(=O)O)CC4)c21` (stereo partly drawn) [Example 610, (1r,2′S,4S)-4-(3-chloroanilino)-2′-{(2R)-3-[(7-hydroxy-5-methyl-6,7-dihydro-5H-cyclopenta[b]pyridin-4-yl)oxy]-2-methylpropyl}-2′,3′-dihydrospiro[cyclohexane-1,1′-indene]-4-carboxylic acid], the IC50 in test [1] (Homo sapiens, NCI-H929, 48 h) turned out to be 423 nM. The inhibitory constant (Ki) in test [2] amounted to 0.767 nM.

On to `C[C@@H](COc1ccnc2c1[C@H](C)CCC2)C[C@H]1Cc2ccccc2[C@]12CC[C@@](Nc1cc(F)cc(Cl)c1)(C(=O)O)CC2` [Example 704, (1r,2′S,4S)-4-(3-chloro-5-fluoroanilino)-2′-[(2R)-2-methyl-3-{[(5R)-5-methyl-5,6,7,8-tetrahydroquinolin-4-yl]oxy}propyl]-2′,3′-dihydrospiro[cyclohexane-1,1′-indene]-4-carboxylic acid], for which the IC50 in test [1] (Homo sapiens, NCI-H929, 48 h) turned out to be 240 nM. The Ki in test [2] came to 1.49 nM.

For the molecule `C[C@@H](COc1ccnc2ccsc12)C[C@@H]1Cc2cc(F)ccc2[C@]12CC[C@@](Nc1cccc(Cl)c1)(C(=O)O)CC2` [Example 738, (1r,2′R,4R)-4-(3-chloroanilino)-5′-fluoro-2′-{(2R)-2-methyl-3-[(thieno[3,2-b]pyridin-7-yl)oxy]propyl}-2′,3′-dihydrospiro[cyclohexane-1,1′-indene]-4-carboxylic acid], the IC50 in test [1] (Homo sapiens, NCI-H929, 48 h) was determined as 468 nM. Further, the inhibitory constant (Ki) in test [2] turned out to be 7.4 nM.

Regarding `C[C@@H](COc1ccnc2c1[C@H](C)CCC2)C[C@@H]1Cc2ccccc2[C@]12CC[C@@](Nc1ccc(F)c(Cl)c1)(C(=O)O)CC2` [Example 703, (1r,2′R,4R)-4-(3-chloro-4-fluoroanilino)-2′-[(2R)-2-methyl-3-{[(5R)-5-methyl-5,6,7,8-tetrahydroquinolin-4-yl]oxy}propyl]-2′,3′-dihydrospiro[cyclohexane-1,1′-indene]-4-carboxylic acid], the IC50 in test [1] (Homo sapiens, NCI-H929, 48 h) is 169 nM. For the same molecule, the Ki in test [2] came to 1.27 nM.

In the case of `CO[C@@H]1CCCc2nccc(OC[C@H](C)C[C@H]3Cc4ccccc4[C@]34CC[C@@](Nc3cccc(Cl)c3)(C(=O)O)CC4)c21` [Example 672, (1r,2′S,4S)-4-(3-chloroanilino)-2′-[(2R)-3-{[(5R)-5-methoxy-5,6,7,8-tetrahydroquinolin-4-yl]oxy}-2-methylpropyl]-2′,3′-dihydrospiro[cyclohexane-1,1′-indene]-4-carboxylic acid], the IC50 in test [1] (Homo sapiens, NCI-H929, 48 h) amounted to 391 nM. For the same molecule, the Ki in test [2] stood at 2.44 nM.

Consider `C[C@@H](COc1ccnc2c1[C@H](C)CCC2)C[C@H]1Cc2ccccc2[C@]12CC[C@@](Nc1cc(Cl)ccc1F)(C(=O)O)CC2` [Example 705, (1r,2′S,4S)-4-(5-chloro-2-fluoroanilino)-2′-[(2R)-2-methyl-3-{[(5R)-5-methyl-5,6,7,8-tetrahydroquinolin-4-yl]oxy}propyl]-2′,3′-dihydrospiro[cyclohexane-1,1′-indene]-4-carboxylic acid], for which the IC50 in test [1] (Homo sapiens, NCI-H929, 48 h) is 2750 nM. Also, in test [2], the Ki came out at 27.7 nM.

For the molecule `Cc1cccc2c1CC(C[C@@H](C)COc1ccnc3c1[C@H](C)CCC3)[C@]21CC[C@](Nc2cccc(Cl)c2)(C(=O)O)CC1` (single isomer, unassigned) [Example 755], the IC50 in test [1] turned out to be 58.4 nM. Besides, in test [2], the inhibitory constant (Ki) worked out at 0.94 nM.

Regarding `C[C@@H](COc1c[nH]c2ccccc12)C[C@H]1Cc2ccccc2[C@]12CC[C@@](Nc1cccc(Cl)c1)(C(=O)O)CC2` [Example 628, (1r,2′S,4S)-4-(3-chloroanilino)-2′-{(2R)-3-[(1H-indol-3-yl)oxy]-2-methylpropyl}-2′,3′-dihydrospiro[cyclohexane-1,1′-indene]-4-carboxylic acid], the IC50 in test [1] (Homo sapiens, NCI-H929, 48 h) was 2400 nM. Moreover, the Ki in test [2] is 69.9 nM.

Turning to `C[C@@H](COc1ccnc2c1[C@@H](C)CCC2)C[C@H]1Cc2cccc(F)c2[C@]12CC[C@@](Nc1cccc(Cl)c1)(C(=O)O)CC2` [Example 762, (1r,2′S,4S)-4-(3-chloroanilino)-7′-fluoro-2′-[(2R)-2-methyl-3-{[(5S)-5-methyl-5,6,7,8-tetrahydroquinolin-4-yl]oxy}propyl]-2′,3′-dihydrospiro[cyclohexane-1,1′-indene]-4-carboxylic acid], in test [1] (Homo sapiens, NCI-H929, 48 h), the IC50 is 390 nM. In addition, the inhibition constant Ki in test [2] stood at 12.1 nM.
